Series [1] deals with WI38 (normal human lung fibroblast). The experiment in a line: Cytotoxicity against WI38 cell line. Format: cell-based. To be noted: Homo sapiens, WI-38; WI38 cells. The method, then:
(§1) Thioesters 7–9 were assayed against A549, MCF7 and WI38 cell lines, in addition to recombinant human rHDAC1 (class I) and recombinant human HDAC6 (rHDAC6, class II) as previously reported. Psammaplin A (3), prereduced psammaplin A thiol (4), and SAHA (1) were included as control compounds. IC50^6/1 is defined by the ratio IC50^HDAC6/IC50^HDAC1 and was used as an indicator of isoform selectivity in vitro.

Series [2] can be described thus: Thioester hydrolysis in assay buffer, thiol detection with fluorescent coumarin probe 10. The class given is physicochemical. To be noted: incubation with probe 10 in buffer FB-188, up to 100 minutes. An excerpt: We therefore undertook preliminary studies to attempt to shed light on the reasons for the high potency of our thioesters in the enzymatic assays. We first envisaged that our assay buffer could potentially be responsible for thioester hydrolysis. We prepared and used synthetic probe 10 [30] (Scheme 3) in order to test this hypothesis. Coumarin-based probe 10 is known to react extremely fast with thiols through a Michael addition reaction. While the fluorescence of 10 is efficiently quenched by the intramolecular double bond, upon reaction with thiols, a highly fluorescent conjugate 11 is produced.
[formula] […] Bottom left: Fluorescence intensity at 465 nm (Y-axis, A.U.) as a function of the number of equivalents of 2-mercaptoethanol added (X-axis). Bottom right: Fluorescence intensity at 465 nm (Y-axis, A.U.) as a function of the incubation time (X-axis, minutes) of probe 10 with thioester 8.
Control experiments were performed using 2-mercaptoethanol as the thiol source. Fluorescence spectra of 10 (10^−6 M 10 in buffer FB-188 [31]) were recorded after incubation with 0, 0.2, 0.4, 0.6, 0.8, 1.0 and 1.5 equiv 2-mercaptoethanol (Scheme 3, bottom left). As expected, a linear relationship between fluorescence intensity and the concentration of thiol could be observed between 0 and 1.0 equiv, confirming the sensitivity and reliability of this system at low concentration. […]

Another series has as its target T1, rHDAC1 (Homo sapiens, UniProt Q13547).
T1 construct: purchased BPS Bioscience (US)
The experiment in a line: rHDAC1 inhibition, coupled Boc-Lys(Ac)-AMC/trypsin fluorescence assay. The class given is biochemical. The method, then:
(§2) HDAC assays were performed as previously reported. The recombinant human histone deacetylases rHDAC1 and rHDAC6 were obtained from BPS Bioscience (US).
(§3) All reactions were performed in black half area 96-well microplates (Greiner bio-one, Germany) according to the general procedure described by Wegener et al. with some minor modifications. […] The buffer components were purchased from Merck (Germany), Roth (Germany) and Sigma-Aldrich.
(§4) The enzyme reaction was initiated by the addition of Boc-Lys(Ac)-AMC substrate. The reaction mixture was incubated at 30 °C in the dark and stopped after 60 min by the addition of a mixture of 70 µM trypsin and 200 nM SAHA. The fluorescence of AMC served as an indirect measure of HDAC enzyme activity. The kinetics of AMC release was measured on a PolarStar fluorescence plate reader (BMG) with an excitation wavelength of 340 nm and an emission wavelength of 460 nm. Complete cleavage of deacetylated Boc-Lys-AMC by trypsin was achieved after about 10–15 min. The fluorescence intensity of the plateau was averaged over at least 5 min and normalized with respect to the percentage of enzyme activity. Finally, the normalized fluorescence intensities were plotted versus the concentration of test compounds and fitted to a four-parameter logistic model to calculate the IC50 values.

Series [3] deals with A549 (human lung carcinoma). Nature of the series: Cytotoxicity against A549 cell line. Format: cell-based. The note with it: Homo sapiens; A549 cells. The method, then: as §1
Series [4] has as its target T2, recombinant human HDAC6 (rHDAC6) (Homo sapiens, UniProt Q9UBN7).
T2 construct: purchased BPS Bioscience (US)
T2 sequence (Q9UBN7 1-1215): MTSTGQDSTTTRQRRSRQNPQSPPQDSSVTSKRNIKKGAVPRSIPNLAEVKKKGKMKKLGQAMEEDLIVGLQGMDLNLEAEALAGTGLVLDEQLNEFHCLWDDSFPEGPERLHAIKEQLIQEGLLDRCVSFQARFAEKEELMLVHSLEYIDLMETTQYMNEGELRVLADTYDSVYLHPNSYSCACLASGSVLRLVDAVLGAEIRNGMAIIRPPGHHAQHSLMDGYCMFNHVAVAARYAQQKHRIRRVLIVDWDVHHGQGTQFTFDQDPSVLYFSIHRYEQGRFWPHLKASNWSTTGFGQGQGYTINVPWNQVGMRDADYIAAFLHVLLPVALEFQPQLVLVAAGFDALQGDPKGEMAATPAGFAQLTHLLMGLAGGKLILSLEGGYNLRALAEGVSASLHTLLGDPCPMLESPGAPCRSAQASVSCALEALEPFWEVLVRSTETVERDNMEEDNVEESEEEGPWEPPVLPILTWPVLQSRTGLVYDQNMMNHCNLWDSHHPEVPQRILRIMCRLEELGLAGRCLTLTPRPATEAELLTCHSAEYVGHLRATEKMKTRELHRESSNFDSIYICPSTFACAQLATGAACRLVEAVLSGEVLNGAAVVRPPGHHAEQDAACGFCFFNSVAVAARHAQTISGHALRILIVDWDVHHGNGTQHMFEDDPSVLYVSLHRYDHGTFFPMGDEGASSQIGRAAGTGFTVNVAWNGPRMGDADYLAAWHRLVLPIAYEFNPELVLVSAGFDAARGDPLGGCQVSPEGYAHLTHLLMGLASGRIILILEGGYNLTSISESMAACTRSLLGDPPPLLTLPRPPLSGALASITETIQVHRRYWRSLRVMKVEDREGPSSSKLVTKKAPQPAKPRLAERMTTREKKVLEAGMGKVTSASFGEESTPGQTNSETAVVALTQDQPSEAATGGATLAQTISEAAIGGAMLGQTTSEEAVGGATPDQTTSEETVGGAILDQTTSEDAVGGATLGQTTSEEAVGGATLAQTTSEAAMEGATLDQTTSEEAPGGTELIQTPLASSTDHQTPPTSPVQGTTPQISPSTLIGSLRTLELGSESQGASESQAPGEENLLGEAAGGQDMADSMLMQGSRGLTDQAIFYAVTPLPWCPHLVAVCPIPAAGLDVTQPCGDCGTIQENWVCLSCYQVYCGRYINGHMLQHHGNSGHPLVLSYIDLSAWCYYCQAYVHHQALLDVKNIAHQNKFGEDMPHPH
Nature of the series: rHDAC6 inhibition, coupled Boc-Lys(Ac)-AMC/trypsin fluorescence assay. Format: biochemical. The note with it: purified recombinant human HDAC6. The method, then: as §2, §3, §4

Series [5] deals with MCF7 (human breast carcinoma). The experiment in a line: Cytotoxicity against MCF7 cell line. Format: cell-based. The note with it: MCF7 cells. The method, then:
as §1

T1 sequence (Q13547 whole entry): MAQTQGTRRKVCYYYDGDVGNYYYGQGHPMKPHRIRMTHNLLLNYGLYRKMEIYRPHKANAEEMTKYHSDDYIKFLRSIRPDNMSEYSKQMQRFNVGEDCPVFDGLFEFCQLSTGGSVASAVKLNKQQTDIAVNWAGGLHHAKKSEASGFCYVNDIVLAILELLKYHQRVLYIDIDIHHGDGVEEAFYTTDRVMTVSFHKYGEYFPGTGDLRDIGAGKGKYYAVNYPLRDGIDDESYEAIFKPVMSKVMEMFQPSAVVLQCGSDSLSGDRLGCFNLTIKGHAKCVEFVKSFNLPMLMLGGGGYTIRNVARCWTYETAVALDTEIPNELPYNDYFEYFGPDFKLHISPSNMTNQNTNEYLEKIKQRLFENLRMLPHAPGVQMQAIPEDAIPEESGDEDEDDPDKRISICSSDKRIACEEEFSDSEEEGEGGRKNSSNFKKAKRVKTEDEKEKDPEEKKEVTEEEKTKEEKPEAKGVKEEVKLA

As usually defined, the IC50 is the concentration at which inhibition is half-maximal. As for `COc1ccc(C/C(=N\O)C(=O)NCCSC(C)=O)cc1Br` [Compound 8, (E)-(S)-2-(3-(3-Bromo-4-methoxyphenyl)-2-(hydroxyimino)propanamido)ethyl ethanethioate], the half-maximal inhibitory concentration (IC50) in series [1] was 5.2 µM; on rHDAC1 (purified recombinant human HDAC1) it was 5 nM; in series [3], 8.3 µM; in series [4] it was 23 µM; in series [5] it was 3.2 µM. The “thiol formation (thioester hydrolysis) in assay buffer” value in series [2] is “no evidence of thiol formation”. In addition, at rHDAC1 (isoform selectivity in vitro), the “IC50^6/1 (ratio IC50 HDAC6/IC50 HDAC1)” value is recorded as 4560. On rHDAC1 (thioester vs free thiol), the “times less potent than the corresponding free thiol analogue against rHDAC1” value came out at 2.5 times.

These data come from publication PMC3566764, “Thioester derivatives of the natural product psammaplin A as potent histone deacetylase inhibitors” (Beilstein Journal of Organic Chemistry, 2013).
